The source of these data is the supplement of paper PMC12137928.

This test deals with HCT116. Particulars: 72 h. An outline of the steps:
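Four-parameter Hill fits gave IC50 and maximal efficacy. The data were CellTiter-Glo luminescence readings in HCT116 cells, normalized so that vehicle was 0% and positive control was -100%, with pattern correction afterwards.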

Molecules are shown by their SMILES. Where a name gives a salt, the structure may show the parent alone.

Take `CC[C@H]1OC(=O)[C@H](C)[C@@H](O[C@H]2C[C@@](C)(OC)[C@@H](O)[C@H](C)O2)[C@H](C)[C@@H](O[C@@H]2O[C@H](C)C[C@H](N(C)C)[C@H]2O)[C@](C)(OC)C[C@@H](C)C(=O)[C@H](C)[C@@H](O)[C@]1(C)O` [Clarithromycin]: the IC50 cell viability is, setting by setting: (ICRF193 0 nM) more than 45.8 µM; (ICRF193 200 nM) more than 45.8 µM.

In the case of `COc1cc(N)c(Cl)cc1C(=O)NC1CCN(Cc2ccccc2)CC1` [Clebopride maleate], the IC50 cell viability by setting is: (ICRF193 0 nM) more than 45.8 µM; (ICRF193 200 nM) more than 45.8 µM.

Consider `Clc1ccc(Cn2c(CN3CCCC3)nc3ccccc32)cc1` [Clemizole hydrochloride], for which the IC50 cell viability was more than 45.8 µM (ICRF193 0 nM) and more than 45.8 µM (ICRF193 200 nM).

In the case of `CC(C)(C)NCC(O)c1cc(Cl)c(N)c(Cl)c1` (configuration not stated) [Clenbuterol], the IC50 cell viability (ICRF193 0 nM) is more than 45.8 µM and the IC50 cell viability (ICRF193 200 nM) is more than 45.8 µM.

Consider `CCCC(=O)OCOC(=O)C1=C(C)NC(C)=C(C(=O)OC)C1c1cccc(Cl)c1Cl` (configuration not stated) [Clevidipine], for which the IC50 cell viability is more than 45.8 µM (ICRF193 0 nM) and more than 45.8 µM (ICRF193 200 nM).

For the molecule `C[N+]12CCC(CC1)C(OC(=O)C(O)(c1ccccc1)c1ccccc1)C2` (configuration not stated) [Clidinium bromide], the IC50 cell viability reads like this: (ICRF193 0 nM) more than 45.8 µM; (ICRF193 200 nM) more than 45.8 µM.

Regarding `CC(C)(C)C(=O)C(Oc1ccc(Cl)cc1)n1ccnc1` (configuration not stated) [Climbazole], the IC50 cell viability by setting is: (ICRF193 0 nM) more than 45.8 µM; (ICRF193 200 nM) more than 45.8 µM.

Turning to `CCC[C@@H]1C[C@@H](C(=O)N[C@@H]([C@H]2O[C@H](SC)[C@H](OP(=O)(O)O)[C@@H](O)[C@H]2O)[C@H](C)Cl)N(C)C1` [Clindamycin Phosphate], the IC50 cell viability runs as follows: (ICRF193 0 nM) more than 45.8 µM; (ICRF193 200 nM) more than 45.8 µM.

In turn, `CCC[C@@H]1C[C@@H](C(=O)N[C@@H]([C@H]2O[C@H](SC)[C@H](O)[C@@H](O)[C@H]2O)[C@H](C)Cl)N(C)C1` [Clindamycin hydrochloride] showed an IC50 cell viability (ICRF193 0 nM) of more than 45.8 µM and an IC50 cell viability (ICRF193 200 nM) of more than 45.8 µM.

With `CCCCCCCCCCCCCCCC(=O)O[C@@H]1[C@@H](O)[C@@H](O)[C@@H]([C@H](NC(=O)[C@@H]2C[C@@H](CCC)CN2C)[C@H](C)Cl)O[C@@H]1SC` [Clindamycin palmitate HCl], the IC50 cell viability is, setting by setting: (ICRF193 0 nM) more than 45.8 µM; (ICRF193 200 nM) more than 45.8 µM.

With `CCC(C)(Oc1ccc(C2(c3ccc(OC(C)(CC)C(=O)O)cc3)CCCCC2)cc1)C(=O)O` (configuration not stated) [Clinofibrate], the IC50 cell viability runs as follows: (ICRF193 0 nM) more than 45.8 µM; (ICRF193 200 nM) more than 45.8 µM.

Consider `CC(Cc1ccccc1)NCc1ccccc1Cl` (configuration not stated) [Clobenzorex hydrochloride], for which the IC50 cell viability was more than 45.8 µM (ICRF193 0 nM) and more than 45.8 µM (ICRF193 200 nM).

`CCC(=O)O[C@]1(C(=O)CCl)[C@@H](C)C[C@H]2[C@@H]3CCC4=CC(=O)C=C[C@]4(C)[C@@]3(F)[C@@H](O)C[C@@]21C` [Clobetasol propionate]: the IC50 cell viability runs as follows: (ICRF193 0 nM) more than 45.8 µM; (ICRF193 200 nM) more than 45.8 µM.

For the molecule `CC(CN(C)C)C(C)(O)Cc1ccc(Cl)cc1` (configuration not stated) [Clobutinol hydrochloride], the IC50 cell viability by setting is: (ICRF193 0 nM) more than 45.8 µM; (ICRF193 200 nM) more than 45.8 µM.

Consider `C[C@@H]1C[C@H]2[C@@H]3C[C@H](F)C4=CC(=O)C=C[C@]4(C)[C@@]3(Cl)[C@@H](O)C[C@]2(C)[C@H]1C(=O)COC(=O)C(C)(C)C` [Clocortolone pivalate], for which the IC50 cell viability by setting is: (ICRF193 0 nM) more than 45.8 µM; (ICRF193 200 nM) more than 45.8 µM.

As to `O=P(O)(O)C(Cl)(Cl)P(=O)(O)O` [Clodronate], the IC50 cell viability (ICRF193 0 nM) was more than 45.8 µM and the IC50 cell viability (ICRF193 200 nM) was more than 45.8 µM.

Turning to `CC(C)/N=c1\cc2n(-c3ccc(Cl)cc3)c3ccccc3nc-2cc1Nc1ccc(Cl)cc1` [Clofazimine], the IC50 cell viability runs as follows: (ICRF193 0 nM) more than 45.8 µM; (ICRF193 200 nM) more than 45.8 µM.

Turning to `NS(=O)(=O)c1ccc(Cl)c(S(N)(=O)=O)c1` [Clofenamide], the IC50 cell viability (ICRF193 0 nM) is more than 45.8 µM and the IC50 cell viability (ICRF193 200 nM) is more than 45.8 µM.

Turning to `CCOC(=O)C(C)(C)Oc1ccc(Cl)cc1` [Clofibrate], the IC50 cell viability reads like this: (ICRF193 0 nM) more than 45.8 µM; (ICRF193 200 nM) more than 45.8 µM.

`Cc1ncsc1CCCl` [Clomethiazole]: the IC50 cell viability (ICRF193 0 nM) was more than 45.8 µM and the IC50 cell viability (ICRF193 200 nM) was more than 45.8 µM.

`Clc1ccc(C(OCCN2CCCCC2)c2ccccc2)cc1` (configuration not stated) [Cloperastine hydrochloride]: the IC50 cell viability reads like this: (ICRF193 0 nM) more than 45.8 µM; (ICRF193 200 nM) more than 45.8 µM.

`Cc1nc(C)c(Cl)c(O)c1Cl` [Clopidol]: the IC50 cell viability is, setting by setting: (ICRF193 0 nM) more than 45.8 µM; (ICRF193 200 nM) more than 45.8 µM.

Molecule `O=C(O)CCC/C=C\CC1C(O)CC(O)C1/C=C/C(O)COc1cccc(Cl)c1` (configuration not stated) [Cloprostenol (sodium salt)] yielded an IC50 cell viability (ICRF193 0 nM) of more than 45.8 µM and an IC50 cell viability (ICRF193 200 nM) of more than 45.8 µM.

Take `Oc1ccc(Cl)cc1Cc1ccccc1` [Clorophene]: the IC50 cell viability is more than 45.8 µM (ICRF193 0 nM) and more than 45.8 µM (ICRF193 200 nM).

In the case of `CC(C)NCC(O)c1ccccc1Cl` (configuration not stated) [Clorprenaline hydrochloride], the IC50 cell viability is more than 45.8 µM (ICRF193 0 nM) and more than 45.8 µM (ICRF193 200 nM).

As for `Nc1cc(C(Cl)=C(Cl)Cl)c(S(N)(=O)=O)cc1S(N)(=O)=O` [Clorsulon], the IC50 cell viability (ICRF193 0 nM) was more than 45.8 µM and the IC50 cell viability (ICRF193 200 nM) was more than 45.8 µM.

On to `CN1CCN(C2=Nc3ccccc3Sc3ccc(Cl)cc32)CC1` [Clothiapine], for which the IC50 cell viability was more than 45.8 µM (ICRF193 0 nM) and more than 45.8 µM (ICRF193 200 nM).

With `Cc1onc(-c2ccccc2Cl)c1C(=O)N[C@@H]1C(=O)N2[C@@H]1SC(C)(C)[C@@H]2C(=O)O` [Cloxacillin sodium], the IC50 cell viability is more than 45.8 µM (ICRF193 0 nM) and more than 45.8 µM (ICRF193 200 nM).

Take `O=C1CN2CCOC2(c2ccccc2Cl)c2cc(Cl)ccc2N1` (configuration not stated) [Cloxazolam]: the IC50 cell viability was more than 45.8 µM (ICRF193 0 nM) and more than 45.8 µM (ICRF193 200 nM).

In the case of `Oc1ccc(Cl)c2cccnc12` [Cloxyquin], the IC50 cell viability by setting is: (ICRF193 0 nM) more than 45.8 µM; (ICRF193 200 nM) more than 45.8 µM.

`CN1CCN(C2=Nc3cc(Cl)ccc3Nc3ccccc32)CC1` [Clozapine]: the IC50 cell viability (ICRF193 0 nM) was more than 45.8 µM and the IC50 cell viability (ICRF193 200 nM) was more than 45.8 µM.

As for `Cc1c(C(=O)O)c(O)cc2c1C(=O)c1c(O)c(C3OC(CO)C(O)C(O)C3O)c(O)c(O)c1C2=O` (configuration not stated) [Cochineal], the IC50 cell viability reads like this: (ICRF193 0 nM) more than 45.8 µM; (ICRF193 200 nM) more than 45.8 µM.

`COC1=C(OC)C(=O)C(C/C=C(\C)CC/C=C(\C)CC/C=C(\C)CC/C=C(\C)CC/C=C(\C)CC/C=C(\C)CC/C=C(\C)CC/C=C(\C)CC/C=C(\C)CCC=C(C)C)=C(C)C1=O` [Coenzyme Q10] registered an IC50 cell viability (ICRF193 0 nM) of more than 45.8 µM and an IC50 cell viability (ICRF193 200 nM) of more than 45.8 µM.

In the case of `CC(=O)OCC(=O)[C@@]1(O)CC[C@H]2[C@@H]3CCC4=CC(=O)CC[C@]4(C)[C@H]3C(=O)C[C@@]21C` [Cortisone acetate], the IC50 cell viability by setting is: (ICRF193 0 nM) more than 45.8 µM; (ICRF193 200 nM) more than 45.8 µM.

For `CCOP(=S)(OCC)Oc1ccc2c(C)c(Cl)c(=O)oc2c1` [Coumaphos], the IC50 cell viability by setting is: (ICRF193 0 nM) more than 45.8 µM; (ICRF193 200 nM) more than 45.8 µM.

On to `O=c1ccc2ccccc2o1` [Coumarin], for which the IC50 cell viability is, setting by setting: (ICRF193 0 nM) more than 45.8 µM; (ICRF193 200 nM) more than 45.8 µM.

For `CC(/C=C/C=C(\C)C(=O)O[C@@H]1O[C@H](CO[C@@H]2O[C@H](CO)[C@@H](O)[C@H](O)[C@H]2O)[C@@H](O)[C@H](O)[C@H]1O)=C\C=C\C=C(C)\C=C\C=C(/C)C(=O)O[C@@H]1O[C@H](CO[C@@H]2O[C@H](CO)[C@@H](O)[C@H](O)[C@H]2O)[C@@H](O)[C@H](O)[C@H]1O` [Crocin?], the IC50 cell viability was more than 45.8 µM (ICRF193 0 nM) and more than 45.8 µM (ICRF193 200 nM).

As to `CCOC(=O)c1cc(=O)c2c(OCC(COc3cccc4oc(C(=O)OCC)cc(=O)c34)OC(=O)[C@@H](N)CCCCN)cccc2o1` [Cromoglicate lisetil], the IC50 cell viability runs as follows: (ICRF193 0 nM) more than 45.8 µM; (ICRF193 200 nM) more than 45.8 µM.

Turning to `CC=CC(=O)N(CC)c1ccccc1C` [Crotamiton], the IC50 cell viability by setting is: (ICRF193 0 nM) more than 45.8 µM; (ICRF193 200 nM) more than 45.8 µM.

Molecule `CC1CC(OC(=O)C(O)c2ccccc2)CC(C)(C)C1` (configuration not stated) [Cyclandelate] displayed an IC50 cell viability (ICRF193 0 nM) of more than 45.8 µM and an IC50 cell viability (ICRF193 200 nM) of more than 45.8 µM.

In the case of `CN1CCN(C(c2ccccc2)c2ccccc2)CC1` [Cyclizine hydrochloride], the IC50 cell viability by setting is: (ICRF193 0 nM) more than 45.8 µM; (ICRF193 200 nM) more than 45.8 µM.

`CC(=O)Oc1ccc(C(=C2CCCCC2)c2ccc(OC(C)=O)cc2)cc1` [Cyclofenil]: the IC50 cell viability is more than 45.8 µM (ICRF193 0 nM) and more than 45.8 µM (ICRF193 200 nM).

As for `CC1CCCCN1CCCOC(=O)c1ccc(OC2CCCCC2)cc1` (configuration not stated) [Cyclomethycaine], the IC50 cell viability is more than 45.8 µM (ICRF193 0 nM) and more than 45.8 µM (ICRF193 200 nM).

Turning to `CNC(C)CC1CCCC1` (configuration not stated) [Cyclopentamine hydrochloride], the IC50 cell viability is, setting by setting: (ICRF193 0 nM) more than 45.8 µM; (ICRF193 200 nM) more than 45.8 µM.

For `NS(=O)(=O)c1cc2c(cc1Cl)NC(CC1CCCC1)NS2(=O)=O` (configuration not stated) [Cyclopenthiazide], the IC50 cell viability is, setting by setting: (ICRF193 0 nM) more than 45.8 µM; (ICRF193 200 nM) more than 45.8 µM.

In the case of `CN(C)CCOC(=O)C(c1ccccc1)C1(O)CCCC1` (configuration not stated) [Cyclopentolate hydrochloride], the IC50 cell viability reads like this: (ICRF193 0 nM) more than 45.8 µM; (ICRF193 200 nM) more than 45.8 µM.

As for `O=P1(N(CCCl)CCCl)NCCCO1` (configuration not stated) [Cyclophosphamide], the IC50 cell viability was more than 45.8 µM (ICRF193 0 nM) and more than 45.8 µM (ICRF193 200 nM).

In the case of `NS(=O)(=O)c1cc2c(cc1Cl)NC(C1CC3C=CC1C3)NS2(=O)=O` (configuration not stated) [Cyclothiazide], the IC50 cell viability is, setting by setting: (ICRF193 0 nM) more than 45.8 µM; (ICRF193 200 nM) more than 45.8 µM.

`C/C(=C1\CCOC(=O)S1)N(C=O)Cc1cnc(C)nc1N` [Cycotiamine]: the IC50 cell viability reads like this: (ICRF193 0 nM) more than 45.8 µM; (ICRF193 200 nM) more than 45.8 µM.

The molecule `OC(CCN1CCCCC1)(c1ccccc1)C1CCCC1` (configuration not stated) [Cycrimine Hydrochloride] registered an IC50 cell viability (ICRF193 0 nM) of more than 45.8 µM and an IC50 cell viability (ICRF193 200 nM) of more than 45.8 µM.

With `CN1CCC(=C2c3ccccc3C=Cc3ccccc32)CC1` [Cyproheptadine hydrochloride], the IC50 cell viability was more than 45.8 µM (ICRF193 0 nM) and more than 45.8 µM (ICRF193 200 nM).
